Test results taken from the NIST ThermoML archive (doi:10.1021/je400188h).
Numbers after ± are expanded uncertainties.

Conditions: Crystal; visual observation

- Normal melting temperature: 177.00 ± 0.5 °C
Structure (SMILES): O=C(O)[C@@H]1Cc2ccccc2N1 [(S)-indoline-2-carboxylic acid]
